From patent US20070172957A1, “Methods of identifying anti-inflammatory macrolides” (TAISHO PHARMACEUTICAL CO., LTD., priority 2004, published 2007)

System: tobacco smoke-induced pulmonary emphysema
Test: Model mice with tobacco smoke-induced pulmonary emphysema
Assay type: in vivo
Conditions: for pulmonary alveolus size: 6 months, mean ± SE; for pulmonary emphysema rate: relative to non-smoking
Protocol: The model mice with tobacco smoke-induced pulmonary emphysema mimicking human pulmonary emphysema were constructed according to the method as described in Hautamaki, R. D. et al., Science 1997, 277: 2002-2004 or Shapiro, S. D. et al., Am. […] Specifically, C57black/6 female mice of 12-weeks old were exposed to tobacco smoke at two cigarettes per day, 6 days per week for 6 months.
Administration of clarithromycin was carried out orally at the rate of 25, 50 or 100 […] twice daily (morning and evening) during the tobacco smoke exposure period. The plasma AUC0-8 of clarithromycin obtained when 50 mg/kg was singly administered to the mice was 2.677 μg·hr/ml while the plasma AUC0-8 of clarithromycin obtained when 200 mg of clarithromycin was singly administered to a normal human subject was 8.98 μg·hr/ml. The former concentration was substantially lower than the latter one and was an adequate concentration to be used clinically.
The index of the improvement to the pulmonary emphysema condition followed the mothod as described in Hautamaki, R. D. et al., ibid. or Shapiro, S. D. et al., ibid.
Hematoxylin eosin-stained pathological specimens were prepared from the model mice and ten visual fields under a microscope were randomly selected, where the average sizes of pulmonary alveoli were measured. An increase in the average size of pulmonary alveolus is considered as an index of the destruction of pulmonary alveoli, i.e., the pulmonary emphysema condition.
The cell counts of inflammatory cells (microphages and neutrophiles) in the bronchoalveolar lavage fluids after six months' exposure were measured to provide an index of the inflammatory condition in the model mice with tobacco smoke-induced pulmonary emphysema.
It has been reported that as pulmonary emphysema progresses, pulmonary functions deteriorate. It has also been known that the pulmonary compliance, which is an index of pulmonary functions, increases in model mice with tobacco smoke-induced pulmonary emphysema. Thus, the pulmonary compliance was measured in the model mice with tobacco smoke-induced pulmonary emphysema after six months' exposure.

CC[C@H]1OC(=O)[C@H](C)[C@@H](O[C@H]2C[C@@](C)(OC)[C@@H](O)[C@H](C)O2)[C@H](C)[C@@H](O[C@@H]2O[C@H](C)C[C@H](N(C)C)[C@H]2O)[C@](C)(OC)C[C@@H](C)C(=O)[C@H](C)[C@@H](O)[C@]1(C)O [clarithromycin]
cell count of macrophages in bronchoalveolar lavage fluids (after six months' exposure, FIG. 4A): reduced
cell count of neutrophiles in bronchoalveolar lavage fluids (after six months' exposure, FIG. 4B): reduced
pulmonary compliance (after six months' exposure, FIG. 5): recovered
improvement factor (smoking + CAM 25 mg/kg): 47%
pulmonary alveolus size (smoking + CAM 25 mg/kg orally twice daily): 35.60 ± 1.425 μm
pulmonary emphysema rate (smoking + CAM 25 mg/kg): 10.6%
improvement factor (smoking + CAM 50 mg/kg): up to 87%
pulmonary alveolus size (smoking + CAM 50 mg/kg orally twice daily): 33.16 ± 0.890 μm
improvement factor (smoking + CAM 50 mg/kg, listed as CAM): 85%
pulmonary emphysema rate (smoking + CAM 50 mg/kg): 3%
improvement factor (smoking + CAM 100 mg/kg): 66.5%
pulmonary alveolus size (smoking + CAM 100 mg/kg orally twice daily): 34.35 ± 0.936 μm
pulmonary emphysema rate (smoking + CAM 100 mg/kg): 6.7%
